Test results as given in patent publication US10407409B2, “6-(5-hydroxy-1H-pyrazol-1-yl)nicotinamide inhibitors of PHD” (Takeda Pharmaceutical Company Limited, priority 2013, dated 2019).

Assays:
[1] = target: PHD2 enzyme (residues 181-417) (Homo sapiens (Human), UniProt Q9GZT9); experiment: Inhibition of PHD enzyme (LC/MS peptide hydroxylation assay); assay type: biochemical; conditions: PHD2 (residues 181-417) 5 nM, 60 min pre-incubation; -log(IC50), IC50 molar
In short: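 PHD2 (5 nM final) preincubated with inhibitor 60 min at RT in 50 mM HEPES, 50 mM KCl, 0.5 mM TCEP, 2 uM FeCl2, 0.1 mg/ml BSA, pH 7.3. Reaction started with biotin-peptide (1 uM), 2-oxoglutarate (2 uM), ascorbate (1 mM), quenched at 60 min; hydroxylated product by LC/MS, reported as pIC50.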

[2] = tested on: HIF1a protein in H9c2 rat cardiomyocytes; experiment: Cell-based HIF-alpha stabilization assay (inhibition of PHD in cells); conditions: 24 hrs compound incubation, HIF1a protein by ELISA; for EC50: Rattus norvegicus, H9c2, 24 h, read-out: Inhibition of PHD in cells (pEC50) (converted)
In short: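 Rat H9c2 cardiomyocytes, cultured 24 h, were treated 24 h with an 11-point serial dilution of compound. HIF1a in whole-cell lysates was quantified by ELISA as % of the maximal desferrioxamine response. EC50 came from curve fitting; EC50pos is the concentration reaching 50% of the desferrioxamine maximum.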

PHD2 enzyme (residues 181-417), sequence (Q9GZT9 181-417): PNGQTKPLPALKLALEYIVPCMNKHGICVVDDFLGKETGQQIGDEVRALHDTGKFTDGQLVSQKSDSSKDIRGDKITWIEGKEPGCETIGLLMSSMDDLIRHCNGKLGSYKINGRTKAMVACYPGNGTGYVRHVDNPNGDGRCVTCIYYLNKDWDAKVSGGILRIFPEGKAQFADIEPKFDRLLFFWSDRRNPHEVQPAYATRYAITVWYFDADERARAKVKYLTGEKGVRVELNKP

PHD Inhibition (pIC50) [1]	SMILES	EC50 [2] [nM]	Inhibition of PHD in cells (pEC50) [2]
7.54	N#Cc1ccc(-c2cnn(-c3ccc(C(=O)NC4CC5(COC5)C4)cn3)c2O)cc1 [Example 237, 6-(4-(4-cyanophenyl)-5-hydroxy-1H-pyrazol-1-yl)-N-(2-oxaspiro[3.3]heptan-6-yl)nicotinamide]	447	
7.38	CC1CC1NC(=O)c1ccc(-n2ncc(-c3ccc(C#N)cc3)c2O)nc1 (stereo not drawn) [Example 262, 6-(4-(4-cyanophenyl)-5-hydroxy-1H-pyrazol-1-yl)-N-(2-methylcyclopropyl)nicotinamide]	525	
8.31	Cc1cc(C#N)ccc1-c1cnn(-c2ccc(C(=O)N3CCC(N4CCOCC4)CC3)cn2)c1O [Example 421, 4-(5-hydroxy-1-(5-(4-morpholinopiperidine-1-carbonyl)pyridin-2-yl)-1H-pyrazol-4-yl)-3-methylbenzonitrile]	661	
8.35	Cc1c(-c2cnn(-c3ccc(C(=O)N4CC[C@H](N(C)C)C4)cn3)c2O)ccc(C#N)c1F [Example 318, (S)-4-(1-(5-(3-(dimethylamino)pyrrolidine-1-carbonyl)pyridin-2-yl)-5-hydroxy-1H-pyrazol-4-yl)-2-fluoro-3-methylbenzonitrile]	708	
7.94	Cc1cc(C#N)ccc1-c1cnn(-c2ccc(C(=O)N3CCC[C@H](N4CCCC4)C3)cn2)c1O [Example 381, (S)-4-(5-hydroxy-1-(5-(3-(pyrrolidin-1-yl)piperidine-1-carbonyl)pyridin-2-yl)-1H-pyrazol-4-yl)-3-methylbenzonitrile]	1070	
8.60	CCCN1CCN(C(=O)c2ccc(-n3ncc(-c4ccc(C#N)cc4C)c3O)nc2)CC1 [Example 283, 4-(5-hydroxy-1-(5-(4-propylpiperazine-1-carbonyl)pyridin-2-yl)-1H-pyrazol-4-yl)-3-methylbenzonitrile]		5.72
8.29	Cc1c(-c2cnn(-c3ccc(C(=O)N4CCN(C(C)C)[C@@H](C)C4)cn3)c2O)ccc(C#N)c1F [Example 339, (S)-2-fluoro-4-(5-hydroxy-1-(5-(4-isopropyl-3-methylpiperazine-1-carbonyl)pyridin-2-yl)-1H-pyrazol-4-yl)-3-methylbenzonitrile]	2040	
6.7	COc1cc(-c2cnn(-c3ccc(C(=O)NC4(C5CCOCC5)CC4)cn3)c2O)ccn1 [Example 233, 6-(5-hydroxy-4-(2-methoxypyridin-4-yl)-1H-pyrazol-1-yl)-N-(1-(tetrahydro-2H-pyran-4-yl)cyclopropyl)nicotinamide]	589	
8.3	COCC1CCN(C(=O)c2ccc(-n3ncc(-c4ccc(C#N)cc4C)c3O)nc2)CC1 [Example 248, 4-(5-hydroxy-1-(5-(4-(methoxymethyl)piperidine-1-carbonyl)pyridin-2-yl)-1H-pyrazol-4-yl)-3-methylbenzonitrile]	251	
8.48	COCCCNC(=O)c1ccc(-n2ncc(-c3cc(F)c(C#N)cc3C)c2O)nc1 [Example 405, 6-(4-(4-cyano-5-fluoro-2-methylphenyl)-5-hydroxy-1H-pyrazol-1-yl)-N-(3-methoxypropyl)nicotinamide]	324	
8.17	CCN(CC)C1CCCN(C(=O)c2ccc(-n3ncc(-c4ccc(C#N)cc4C)c3O)nc2)C1 (stereo not drawn) [Example 380, 4-(1-(5-(3-(diethylamino)piperidine-1-carbonyl)pyridin-2-yl)-5-hydroxy-1H-pyrazol-4-yl)-3-methylbenzonitrile]	575	
8.09	Cc1cc(C#N)ccc1-c1cnn(-c2ccc(C(=O)N3CCC[C@@H](N(C)C)C3)cn2)c1O [Example 315, (R)-4-(1-(5-(3-(dimethylamino)piperidine-1-carbonyl)pyridin-2-yl)-5-hydroxy-1H-pyrazol-4-yl)-3-methylbenzonitrile]	562	
7.77	Cc1cc(C#N)ccc1-c1cnn(-c2ccc(C(=O)N3CCC(CN(C)C)C3)cn2)c1O (stereo not drawn) [Example 349, 4-(1-(5-(3-((dimethylamino)methyl)pyrrolidine-1-carbonyl)pyridin-2-yl)-5-hydroxy-1H-pyrazol-4-yl)-3-methylbenzonitrile]	479	
7.25	CN(C)CC1CCN(C(=O)c2ccc(-n3ncc(-c4ccc(C#N)cc4)c3O)nc2)C1 (stereo not drawn) [Example 353, 4-(1-(5-(3-((dimethylamino)methyl)pyrrolidine-1-carbonyl)pyridin-2-yl)-5-hydroxy-1H-pyrazol-4-yl)benzonitrile]	3550	
7.01	COc1cc(C#N)ccc1-c1cnn(-c2ccc(C(=O)NC3CC3)cn2)c1O [Example 232, 6-(4-(4-cyano-2-methoxyphenyl)-5-hydroxy-1H-pyrazol-1-yl)-N-cyclopropylnicotinamide]	339	

The next lines start with the compound.

SMILES	PHD Inhibition (pIC50) [1]	EC50 [2] [nM]	Inhibition of PHD in cells (pEC50) [2]
COc1cc(-c2cnn(-c3ccc(C(=O)NCCCN4CCOCC4)cn3)c2O)ccn1 [Example 32, 6-(5-hydroxy-4-(2-methoxypyridin-4-yl)-1H-pyrazol-1-yl)-N-(3-morpholinopropyl)nicotinamide]	7.8	813	
Cc1cc(C#N)ccc1-c1cnn(-c2ccc(C(=O)NCC3CCCCO3)cn2)c1O (stereo not drawn) [Example 142, 6-(4-(4-cyano-2-methylphenyl)-5-hydroxy-1H-pyrazol-1-yl)-N-((tetrahydro-2H-pyran-2-yl)methyl)nicotinamide]	8.3	85.1	
Cc1cc(C#N)ccc1-c1cnn(-c2ccc(C(=O)NCCCN3CCCCC3)cn2)c1O [Example 99, 6-(4-(4-cyano-2-methylphenyl)-5-hydroxy-1H-pyrazol-1-yl)-N-(3-(piperidin-1-yl)propyl)nicotinamide]	7.9	53.7	
COc1cc(-c2cnn(-c3ccc(C(=O)NCCCN4CCCCC4)cn3)c2O)ccn1 [Example 38, 6-(5-hydroxy-4-(2-methoxypyridin-4-yl)-1H-pyrazol-1-yl)-N-(3-(piperidin-1-yl)propyl)nicotinamide]	7.5		6.02
Cc1cc(C#N)ccc1-c1cnn(-c2ccc(C(=O)NC3(C)CC3)cn2)c1O [Example 61, 6-(4-(4-cyano-2-methylphenyl)-5-hydroxy-1H-pyrazol-1-yl)-N-(1-methylcyclopropyl)nicotinamide]	7.19	79.4	
COCCCNC(=O)c1ccc(-n2ncc(-c3ccc(C#N)cc3)c2O)nc1 [Example 148, 6-(4-(4-cyanophenyl)-5-hydroxy-1H-pyrazol-1-yl)-N-(3-methoxypropyl)nicotinamide]	7.57	631	
C[C@@H](NC(=O)c1ccc(-n2ncc(-c3ccc(C#N)cc3)c2O)nc1)C(F)(F)F [Example 170, (R)-6-(4-(4-cyanophenyl)-5-hydroxy-1H-pyrazol-1-yl)-N-(1,1,1-trifluoropropan-2-yl)nicotinamide]	7.29	2750	
COc1cc(-c2cnn(-c3ccc(C(=O)NCC4CCCCO4)cn3)c2O)ccn1 (stereo not drawn) [Example 48, 6-(5-hydroxy-4-(2-methoxypyridin-4-yl)-1H-pyrazol-1-yl)-N-((tetrahydro-2H-pyran-2-yl)methyl)nicotinamide]	8	646	
COCC1(NC(=O)c2ccc(-n3ncc(-c4ccc(C#N)cc4C)c3O)nc2)CCCC1 [Example 129, 6-(4-(4-cyano-2-methylphenyl)-5-hydroxy-1H-pyrazol-1-yl)-N-(1-(methoxymethyl)cyclopentyl)nicotinamide]	7.14	186	
COc1cc(-c2cnn(-c3ccc(C(=O)N[C@@H](C)C4CCOCC4)cn3)c2O)ccn1 [Example 16, (S)-6-(5-hydroxy-4-(2-methoxypyridin-4-yl)-1H-pyrazol-1-yl)-N-(1-(tetrahydro-2H-pyran-4-yl)ethyl)nicotinamide]	7.38	200	
CC(C)CNC(=O)c1ccc(-n2ncc(-c3ccc(C#N)cc3)c2O)nc1 [Example 160, 6-(4-(4-cyanophenyl)-5-hydroxy-1H-pyrazol-1-yl)-N-isobutylnicotinamide]	6.9	759	
COc1cc(C#N)ccc1-c1cnn(-c2ccc(C(=O)NCc3ccccc3)cn2)c1O [Example 195, N-benzyl-6-(4-(4-cyano-2-methoxyphenyl)-5-hydroxy-1H-pyrazol-1-yl)nicotinamide]	7.01	2510	
Cc1cc(C#N)ccc1-c1cnn(-c2ccc(C(=O)NCC3CCOCC3)cn2)c1O [Example 222, 6-(4-(4-cyano-2-methylphenyl)-5-hydroxy-1H-pyrazol-1-yl)-N-((tetrahydro-2H-pyran-4-yl)methyl)nicotinamide]	7.25	100	
COC[C@@H](NC(=O)c1ccc(-n2ncc(-c3ccc(C#N)cc3C)c2O)nc1)C(C)C [Example 62, (S)-6-(4-(4-cyano-2-methylphenyl)-5-hydroxy-1H-pyrazol-1-yl)-N-(1-methoxy-3-methylbutan-2-yl)nicotinamide]	7.14	182	
N#Cc1ccc(-c2cnn(-c3ccc(C(=O)NCCC4CCOC4)cn3)c2O)cc1 (stereo not drawn) [Example 177, 6-(4-(4-cyanophenyl)-5-hydroxy-1H-pyrazol-1-yl)-N-(2-(tetrahydrofuran-3-yl)ethyl)nicotinamide]	7.64	309	
